Source: patent EP4467141A1, “PYRAZOLO-QUINOLINES AS SELECTIVE INHIBITORS OF GENOTOXIC STRESS-INDUCED IKK/NF- KB PATHWAYS FOR CANCER THERAPY” (Max-Delbrück-Centrum für Molekulare Medizin in der …, priority 2023, dated 2024)
Where two headings read alike, the source gives them in different places.

What was measured:
Test in all cases: Kinase panel study
Format in all cases: biochemical
PRKCN (PKD3) = biological target: T1, PRKCN (PKD3) (Homo sapiens, UniProt O94806); settings: for inhibition at 1 µM: 1000nM
T1 construct: purchased Thermo Fisher Scientific
T1 sequence (O94806 1-890): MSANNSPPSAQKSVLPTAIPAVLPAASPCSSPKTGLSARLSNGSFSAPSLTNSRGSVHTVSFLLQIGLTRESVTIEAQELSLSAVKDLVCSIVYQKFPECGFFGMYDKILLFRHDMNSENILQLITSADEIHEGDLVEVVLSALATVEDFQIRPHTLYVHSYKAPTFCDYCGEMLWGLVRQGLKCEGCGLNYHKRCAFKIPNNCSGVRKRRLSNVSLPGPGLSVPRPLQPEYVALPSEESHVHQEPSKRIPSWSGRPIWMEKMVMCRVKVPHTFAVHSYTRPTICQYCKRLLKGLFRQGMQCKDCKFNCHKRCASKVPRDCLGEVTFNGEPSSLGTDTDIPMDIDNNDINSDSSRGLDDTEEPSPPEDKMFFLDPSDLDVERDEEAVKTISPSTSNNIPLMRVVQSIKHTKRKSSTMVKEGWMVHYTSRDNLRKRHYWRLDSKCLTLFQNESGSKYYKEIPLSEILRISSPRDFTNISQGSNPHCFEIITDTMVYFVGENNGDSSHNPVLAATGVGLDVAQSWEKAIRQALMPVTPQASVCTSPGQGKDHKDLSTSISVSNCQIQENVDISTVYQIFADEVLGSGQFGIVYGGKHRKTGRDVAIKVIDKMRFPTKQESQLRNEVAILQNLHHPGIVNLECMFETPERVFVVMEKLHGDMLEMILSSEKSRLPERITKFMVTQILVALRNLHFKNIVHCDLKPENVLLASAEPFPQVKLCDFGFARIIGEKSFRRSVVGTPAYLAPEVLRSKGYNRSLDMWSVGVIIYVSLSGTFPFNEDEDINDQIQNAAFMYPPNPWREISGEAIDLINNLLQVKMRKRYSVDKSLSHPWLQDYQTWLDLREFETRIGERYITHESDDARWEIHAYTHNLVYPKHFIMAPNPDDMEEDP
How it was run: (§1)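 ZLyte/Adapta biochemical kinase assays, standard operating procedures; % inhibition at 1 µM or 10 µM test compound; IC50 determined in panel.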

AKT3 (PKB gamma) = biological target: T2, AKT3 (PKB gamma) (Homo sapiens, UniProt Q9Y243); settings: for inhibition at 1 µM: 1000nM
T2 construct: purchased Thermo Fisher Scientific
T2 sequence (Q9Y243 whole entry): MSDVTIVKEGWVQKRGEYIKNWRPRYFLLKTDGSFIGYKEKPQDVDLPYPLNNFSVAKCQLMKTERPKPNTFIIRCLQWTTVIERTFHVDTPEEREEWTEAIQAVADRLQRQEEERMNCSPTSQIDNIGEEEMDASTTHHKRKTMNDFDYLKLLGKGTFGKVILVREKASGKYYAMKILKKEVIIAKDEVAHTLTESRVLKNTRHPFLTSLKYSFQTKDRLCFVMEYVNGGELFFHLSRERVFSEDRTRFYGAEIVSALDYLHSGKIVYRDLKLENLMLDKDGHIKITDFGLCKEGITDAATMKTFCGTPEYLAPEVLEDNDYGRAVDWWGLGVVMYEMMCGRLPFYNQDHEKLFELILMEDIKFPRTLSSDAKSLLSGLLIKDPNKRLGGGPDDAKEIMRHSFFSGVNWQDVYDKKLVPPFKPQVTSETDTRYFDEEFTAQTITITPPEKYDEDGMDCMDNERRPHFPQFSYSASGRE
How it was run: as §1

[1] = biological target: T3, PIK3CD/PIK3R1 (p11 0 delta/p85 alpha) (Homo sapiens, UniProt O00329); settings: for inhibition at 1 µM: 1000nM
T3 construct: purchased Thermo Fisher Scientific
T3 sequence (O00329 whole entry): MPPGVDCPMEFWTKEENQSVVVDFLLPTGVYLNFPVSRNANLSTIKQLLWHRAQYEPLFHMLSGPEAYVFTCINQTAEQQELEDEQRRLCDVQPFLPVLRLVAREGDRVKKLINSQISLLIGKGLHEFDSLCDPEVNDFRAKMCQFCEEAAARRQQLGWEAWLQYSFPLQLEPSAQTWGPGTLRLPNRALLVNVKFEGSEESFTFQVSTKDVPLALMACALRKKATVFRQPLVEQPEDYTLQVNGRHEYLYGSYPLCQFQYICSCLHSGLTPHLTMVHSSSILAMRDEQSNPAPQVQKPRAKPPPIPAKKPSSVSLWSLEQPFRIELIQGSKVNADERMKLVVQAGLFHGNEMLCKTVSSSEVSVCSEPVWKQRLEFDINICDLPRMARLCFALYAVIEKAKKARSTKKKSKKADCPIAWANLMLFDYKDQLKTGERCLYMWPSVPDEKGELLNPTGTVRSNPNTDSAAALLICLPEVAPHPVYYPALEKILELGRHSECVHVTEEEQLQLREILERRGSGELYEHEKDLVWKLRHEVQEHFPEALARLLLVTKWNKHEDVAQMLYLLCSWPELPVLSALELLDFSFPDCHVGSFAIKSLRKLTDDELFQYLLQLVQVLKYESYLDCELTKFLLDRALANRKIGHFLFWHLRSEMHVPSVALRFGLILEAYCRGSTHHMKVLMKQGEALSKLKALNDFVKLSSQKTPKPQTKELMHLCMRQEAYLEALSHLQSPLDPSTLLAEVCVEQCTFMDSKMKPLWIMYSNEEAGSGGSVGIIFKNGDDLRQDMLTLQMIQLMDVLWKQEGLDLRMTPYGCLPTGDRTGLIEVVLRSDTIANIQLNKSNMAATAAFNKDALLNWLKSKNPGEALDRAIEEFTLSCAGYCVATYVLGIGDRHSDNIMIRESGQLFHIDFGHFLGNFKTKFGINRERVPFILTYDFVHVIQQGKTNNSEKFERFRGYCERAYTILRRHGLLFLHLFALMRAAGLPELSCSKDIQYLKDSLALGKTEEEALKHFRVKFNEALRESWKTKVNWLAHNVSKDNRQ
T3 sequence (P27986 whole entry partner): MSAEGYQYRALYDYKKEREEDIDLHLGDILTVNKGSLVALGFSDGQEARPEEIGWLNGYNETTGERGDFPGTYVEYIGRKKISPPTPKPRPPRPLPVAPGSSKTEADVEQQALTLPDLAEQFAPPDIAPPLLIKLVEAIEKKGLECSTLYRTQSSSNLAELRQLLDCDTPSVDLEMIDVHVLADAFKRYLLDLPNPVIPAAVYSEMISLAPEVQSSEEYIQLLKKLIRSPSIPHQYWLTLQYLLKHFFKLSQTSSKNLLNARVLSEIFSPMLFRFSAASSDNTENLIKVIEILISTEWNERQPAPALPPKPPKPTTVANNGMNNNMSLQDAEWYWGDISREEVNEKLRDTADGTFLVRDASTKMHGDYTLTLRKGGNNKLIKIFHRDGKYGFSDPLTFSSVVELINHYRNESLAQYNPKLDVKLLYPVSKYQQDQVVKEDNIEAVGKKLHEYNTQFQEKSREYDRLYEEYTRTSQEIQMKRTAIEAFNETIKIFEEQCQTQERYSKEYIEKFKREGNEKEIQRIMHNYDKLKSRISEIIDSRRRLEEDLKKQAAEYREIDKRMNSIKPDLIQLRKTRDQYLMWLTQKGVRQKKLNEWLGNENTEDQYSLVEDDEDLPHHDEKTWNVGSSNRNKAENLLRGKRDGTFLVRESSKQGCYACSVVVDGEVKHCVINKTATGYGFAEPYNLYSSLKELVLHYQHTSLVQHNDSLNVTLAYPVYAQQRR
How it was run: as §1

PI4K2B (PI4K2 beta) = biological target: T4, PI4K2B (PI4K2 beta) (Homo sapiens, UniProt Q8TCG2); settings: for inhibition at 1 µM: 1000nM
T4 construct: purchased Thermo Fisher Scientific
T4 sequence (Q8TCG2 whole entry): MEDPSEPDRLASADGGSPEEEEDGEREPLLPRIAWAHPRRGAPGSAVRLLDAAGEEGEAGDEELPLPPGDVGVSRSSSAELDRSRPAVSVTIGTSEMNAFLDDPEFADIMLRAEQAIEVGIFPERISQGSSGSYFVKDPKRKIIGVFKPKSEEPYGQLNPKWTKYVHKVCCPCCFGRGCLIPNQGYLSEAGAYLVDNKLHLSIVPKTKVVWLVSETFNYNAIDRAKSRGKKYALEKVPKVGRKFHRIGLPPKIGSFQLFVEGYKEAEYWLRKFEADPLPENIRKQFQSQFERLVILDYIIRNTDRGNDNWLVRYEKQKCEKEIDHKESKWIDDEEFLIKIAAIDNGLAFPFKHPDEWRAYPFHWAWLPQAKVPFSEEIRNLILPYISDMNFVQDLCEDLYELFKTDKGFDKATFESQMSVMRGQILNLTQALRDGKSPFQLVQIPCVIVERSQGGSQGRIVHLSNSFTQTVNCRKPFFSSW
How it was run: as §1

PIP5K1B = biological target: T5, PIP5K1B (Homo sapiens, UniProt O14986); settings: for inhibition at 1 µM: 1000nM
T5 construct: purchased Thermo Fisher Scientific
T5 sequence (O14986 whole entry): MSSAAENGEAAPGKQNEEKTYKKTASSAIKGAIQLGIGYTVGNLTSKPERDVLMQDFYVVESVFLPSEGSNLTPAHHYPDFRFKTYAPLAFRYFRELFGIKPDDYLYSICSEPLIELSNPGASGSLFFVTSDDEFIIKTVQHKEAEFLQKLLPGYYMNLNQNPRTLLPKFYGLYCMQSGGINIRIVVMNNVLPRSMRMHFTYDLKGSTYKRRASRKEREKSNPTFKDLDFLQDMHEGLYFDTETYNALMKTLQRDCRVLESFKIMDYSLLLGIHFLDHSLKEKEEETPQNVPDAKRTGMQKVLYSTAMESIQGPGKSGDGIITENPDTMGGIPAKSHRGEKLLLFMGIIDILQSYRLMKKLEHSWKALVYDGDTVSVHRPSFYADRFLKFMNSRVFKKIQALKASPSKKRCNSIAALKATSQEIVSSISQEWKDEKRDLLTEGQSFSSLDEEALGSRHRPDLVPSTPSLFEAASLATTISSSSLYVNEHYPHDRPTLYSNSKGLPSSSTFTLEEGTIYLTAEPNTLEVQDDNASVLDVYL
How it was run: as §1

BTK = biological target: T6, BTK (Homo sapiens, UniProt Q06187); settings: for inhibition at 1 µM: 1000nM
T6 construct: purchased Thermo Fisher Scientific
T6 sequence (Q06187 whole entry): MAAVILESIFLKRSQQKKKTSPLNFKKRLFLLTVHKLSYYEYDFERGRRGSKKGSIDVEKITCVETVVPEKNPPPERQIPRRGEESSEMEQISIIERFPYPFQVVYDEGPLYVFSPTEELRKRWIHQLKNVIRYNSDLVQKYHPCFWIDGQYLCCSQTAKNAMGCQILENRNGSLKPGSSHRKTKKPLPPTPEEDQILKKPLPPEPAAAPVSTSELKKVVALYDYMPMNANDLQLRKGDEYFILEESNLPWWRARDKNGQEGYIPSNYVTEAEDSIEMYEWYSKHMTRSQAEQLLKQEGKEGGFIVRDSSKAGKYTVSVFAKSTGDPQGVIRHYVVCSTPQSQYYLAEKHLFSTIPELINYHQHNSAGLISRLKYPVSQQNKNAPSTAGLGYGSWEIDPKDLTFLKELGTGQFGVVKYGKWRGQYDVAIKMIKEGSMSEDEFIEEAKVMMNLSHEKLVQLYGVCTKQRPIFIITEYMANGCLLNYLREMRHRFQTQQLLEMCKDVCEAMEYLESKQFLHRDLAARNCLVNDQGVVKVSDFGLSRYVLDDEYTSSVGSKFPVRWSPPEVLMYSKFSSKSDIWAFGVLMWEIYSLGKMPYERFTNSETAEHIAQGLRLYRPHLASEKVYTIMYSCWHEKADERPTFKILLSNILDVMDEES
How it was run: as §1

PIK3CG (p11 0 gamma) = biological target: T7, PIK3CG (p11 0 gamma) (Homo sapiens, UniProt P48736); settings: for inhibition at 1 µM: 1000nM; for IC50: in vitro kinase panel, criterion of at most 2000 nM
T7 construct: purchased Thermo Fisher Scientific
T7 sequence (P48736 whole entry): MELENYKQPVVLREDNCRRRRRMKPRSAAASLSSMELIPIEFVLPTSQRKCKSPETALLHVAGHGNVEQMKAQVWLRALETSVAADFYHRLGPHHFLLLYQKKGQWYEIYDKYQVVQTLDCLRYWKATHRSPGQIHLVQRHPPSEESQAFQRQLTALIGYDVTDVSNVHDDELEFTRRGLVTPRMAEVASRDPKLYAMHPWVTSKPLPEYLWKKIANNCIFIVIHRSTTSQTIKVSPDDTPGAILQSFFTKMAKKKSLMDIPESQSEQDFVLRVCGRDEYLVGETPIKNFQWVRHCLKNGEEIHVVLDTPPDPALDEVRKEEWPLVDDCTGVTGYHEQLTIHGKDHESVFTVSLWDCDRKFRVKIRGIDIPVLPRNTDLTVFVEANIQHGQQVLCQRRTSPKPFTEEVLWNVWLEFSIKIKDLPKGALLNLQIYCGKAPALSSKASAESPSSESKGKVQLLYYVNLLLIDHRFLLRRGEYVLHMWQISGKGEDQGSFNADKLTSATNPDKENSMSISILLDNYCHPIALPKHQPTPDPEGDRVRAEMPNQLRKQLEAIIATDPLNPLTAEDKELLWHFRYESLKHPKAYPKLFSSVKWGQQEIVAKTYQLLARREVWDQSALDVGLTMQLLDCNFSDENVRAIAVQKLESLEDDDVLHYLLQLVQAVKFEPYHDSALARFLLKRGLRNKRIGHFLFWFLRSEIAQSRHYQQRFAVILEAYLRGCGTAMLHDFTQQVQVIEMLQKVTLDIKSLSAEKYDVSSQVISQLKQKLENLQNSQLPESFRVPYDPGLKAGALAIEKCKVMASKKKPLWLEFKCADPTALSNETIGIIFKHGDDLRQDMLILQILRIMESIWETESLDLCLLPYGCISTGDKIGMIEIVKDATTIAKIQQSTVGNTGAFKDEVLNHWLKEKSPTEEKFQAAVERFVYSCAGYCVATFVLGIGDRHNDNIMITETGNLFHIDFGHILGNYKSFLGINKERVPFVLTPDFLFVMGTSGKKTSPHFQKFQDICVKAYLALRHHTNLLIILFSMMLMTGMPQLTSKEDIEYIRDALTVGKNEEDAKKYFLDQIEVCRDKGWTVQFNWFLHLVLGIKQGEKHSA
How it was run: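 In vitro, kinase panel; ZLyte or Adapta SOP; single-concentration testing (1 or 10 µM); output = % inhibition, plus IC50 in panel.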

IRAK1 = biological target: T8, IRAK1 (Homo sapiens, UniProt P51617); settings: for inhibition at 1 µM: 1000nM
T8 construct: purchased Thermo Fisher Scientific
How it was run: as §1

IRAK4 = biological target: T9, IRAK4 (Homo sapiens, UniProt Q9NWZ3); settings: for inhibition at 1 µM: 1000nM
T9 construct: purchased Thermo Fisher Scientific
T9 sequence (Q9NWZ3 1-460): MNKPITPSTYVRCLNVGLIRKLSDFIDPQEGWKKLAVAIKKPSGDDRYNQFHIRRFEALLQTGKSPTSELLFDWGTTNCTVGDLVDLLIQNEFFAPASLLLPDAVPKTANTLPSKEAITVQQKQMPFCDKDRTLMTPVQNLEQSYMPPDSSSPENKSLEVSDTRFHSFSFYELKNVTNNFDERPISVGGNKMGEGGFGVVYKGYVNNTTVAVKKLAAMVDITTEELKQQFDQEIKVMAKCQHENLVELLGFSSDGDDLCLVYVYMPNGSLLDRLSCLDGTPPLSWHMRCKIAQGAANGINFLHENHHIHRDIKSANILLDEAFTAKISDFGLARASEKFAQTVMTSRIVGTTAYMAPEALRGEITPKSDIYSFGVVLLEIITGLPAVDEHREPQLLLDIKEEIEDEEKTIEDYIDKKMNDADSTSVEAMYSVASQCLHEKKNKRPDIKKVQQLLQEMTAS
How it was run: as §1

[2] = read-out: Percentage of inhibition
[3] = 10000nM, read-out: Percentage of inhibition
[4] = PRKCN (PKD3), compound at 10µM, read-out: % of Inhibition
[5] = AKT3 (PKB gamma), compound at 10µM, read-out: % of Inhibition
[6] = PIK3CD/PIK3R1, compound at 10µM, read-out: % of Inhibition
[7] = PI4K2B (PI4K2 beta), compound at 10µM, read-out: % of Inhibition
[8] = PIP5K1B, compound at 10µM, read-out: % of Inhibition
[9] = BTK, compound at 10µM, read-out: % of Inhibition
[10] = PIK3CG, compound at 10µM, read-out: % of Inhibition
[11] = IRAK1, compound at 10µM, read-out: % of Inhibition
[12] = IRAK4, compound at 10µM, read-out: % of Inhibition

inhibition at 10 µM (PRKCN (PKD3); [4]) | inhibition at 10 µM (AKT3 (PKB gamma); [5]) | inhibition at 10 µM [1, 6] | inhibition at 10 µM (PI4K2B (PI4K2 beta); [7]) | inhibition at 10 µM (PIP5K1B; [8]) | inhibition at 10 µM (BTK; [9]) | inhibition at 10 µM (PIK3CG (p11 0 gamma); [10]) | inhibition at 10 µM (IRAK1; [11]) | inhibition at 10 µM (IRAK4; [12]) | Compound | also measured
– | – | – | – | – | – | – | – | – | COc1ccc2c(c1OC)c(=O)n1c3ccc(O)cc3c3ccnc2c31 [MW01, 5-Hydroxy-10,11-dimethoxy-9H-benzo[c]indolo[3,2,1-ij][1,5]naphthyridin-9-one] | inhibition at 1 µM (PRKCN (PKD3); [2]): 34%; inhibition at 10 µM (PRKCN (PKD3); [3]): 57%; inhibition at 1 µM (AKT3 (PKB gamma); [2]): 7%; inhibition at 10 µM (AKT3 (PKB gamma); [3]): 18%; inhibition at 1 µM [1, 2]: 79%; inhibition at 10 µM [1, 3]: 89%; inhibition at 1 µM (PI4K2B (PI4K2 beta); [2]): 3%; inhibition at 10 µM (PI4K2B (PI4K2 beta); [3]): 20%; inhibition at 1 µM (PIP5K1B; [2]): 4%; inhibition at 10 µM (PIP5K1B; [3]): 21%; inhibition at 1 µM (BTK; [2]): 11%; inhibition at 10 µM (BTK; [3]): 23%; inhibition at 1 µM (PIK3CG (p11 0 gamma); [2]): 81%; inhibition at 10 µM (PIK3CG (p11 0 gamma); [3]): 88%; IC50 (PIK3CG (p11 0 gamma)): ≤ 2000 nM; inhibition at 1 µM (IRAK1; [2]): 57%; inhibition at 10 µM (IRAK1; [3]): 67%; inhibition at 1 µM (IRAK4; [2]): 19%; inhibition at 10 µM (IRAK4; [3]): 50%
-8% | 12% | 34% | 11% | 14% | 30% | -1% | 56% | -9% | COc1ccc2c(c1)c1ccnc3c4nc(OC)ccc4c(=O)n2c13 [MW01-E6, 5,15-dimethoxy-1,11,14-triazapentacyclo[10.7.1,0^2,7.0^8,^20.0^13,^18]icosa-2(7),3,5,8(20),9,11,13(18),14,16-nonaen-19-one] | –
74% | 24% | 87% | 22% | 5% | 69% | 93% | 71% | -186% | O=c1c2cc(O)ccc2c2nccc3c4cc(O)ccc4n1c32 [MW01-E10, 5,16-dihydroxy-1,11-diazapentacyclo[10.7.1.0^2,^7.0^8,^20.0^13,^18]icosa-2(7),3,5,8(20),9,11,13(18),14,16-nonaen-19-one] | –
-1% | 23% | 84% | 21% | 26% | 29% | 49% | 9% | -15% | COc1ccc2c(c1)c1ccnc3c4ccnc(OC)c4c(=O)n2c13 [MW01-E14, 5,17-dimethoxy-1,11,16-triazapentacyclo[10.7.1.0^2,^7.0^8,^20.0^13,^18]icosa-2(7),3,5,8(20),9,11,13(18),14,16-nonaen-19-one] | –
52% | 19% | 77% | 24% | -3% | 30% | 99% | 69% | 2% | O=c1c2cnccc2c2nccc3c4cc(O)ccc4n1c32 [MW01-E18, 5-hydroxy-1,11,16-triazapentacyclo[10.7.1.0^2,^7.0^8,^20.0^13,^18]icosa-2(7),3,5,8(20),9,11,13(18),14,16-nonaen-19-one] | –
– | – | – | – | – | – | – | – | – | COc1ccc2cc3c(N)nn(C(=O)c4cccc(N(C)C)c4)c3nc2c1 [MW05, (3-Amino-7-methoxypyrazolo[3,4-b]quinolin-1-yl)-[3-(dimethylamino)phenyl]methanone] | inhibition at 1 µM (PRKCN (PKD3); [2]): 17%; inhibition at 10 µM (PRKCN (PKD3); [3]): 15%; inhibition at 1 µM (AKT3 (PKB gamma); [2]): 4%; inhibition at 10 µM (AKT3 (PKB gamma); [3]): -6%; inhibition at 1 µM [1, 2]: 40%; inhibition at 10 µM [1, 3]: 77%; inhibition at 1 µM (PI4K2B (PI4K2 beta); [2]): 9%; inhibition at 10 µM (PI4K2B (PI4K2 beta); [3]): 0%; inhibition at 1 µM (PIP5K1B; [2]): -13%; inhibition at 10 µM (PIP5K1B; [3]): 7%; inhibition at 1 µM (BTK; [2]): 5%; inhibition at 10 µM (BTK; [3]): 8%; inhibition at 1 µM (PIK3CG (p11 0 gamma); [2]): 20%; inhibition at 10 µM (PIK3CG (p11 0 gamma); [3]): 70%; IC50 (PIK3CG (p11 0 gamma)): ≤ 2000 nM; inhibition at 1 µM (IRAK1; [2]): 17%; inhibition at 10 µM (IRAK1; [3]): -7%; inhibition at 1 µM (IRAK4; [2]): 0%; inhibition at 10 µM (IRAK4; [3]): 2%
7% | 11% | 28% | 8% | -12% | 7% | 2% | 2% | -3% | COc1ccc2nc3c(cc2c1)c(N)nn3C(=O)c1cccc(N(C)C)c1 [MW05-E2, 1-[3-(dimethylamino)benzoyl]-6-methoxy-1H-pyrazolo[3,4-b]quinolin-3-amine] | –
